Data reported in article PMC10810651, “Discovery of novel and potent CDK8 inhibitors for the treatment of acute myeloid leukaemia” (Journal of Enzyme Inhibition and Medicinal Chemistry, 2024).
Like-named read-outs stand apart in the source and are kept apart here.

Tests used:
[1] = system: MV4-11; assay: Antiproliferative CCK-8 assay, MV4-11; format: cell-based; conditions: Homo sapiens; MV4-11, CCK-8 assay, means ± SD; read-out: GC50 (the source's name)
Excerpt: (§1) Compounds12, 13 and 30 were selected for further cell activity assessments based on the enzymatic activity assessment results. molm-13 and MV4-11(acute myeloid lineage leukaemia cells), MGC-803 (gastric cancer cell), MDA-MB-231(breast cancer cell), A375 (melanoma cell), A549 (lung cancer cell), HCT-116, SW-480 and HT-29 (colorectal cancer cells) were selected to evaluate antitumor activity in vitro, GES-1 (gastric mucosal epithelial cell) was selected to evaluate toxicity in vitro.
(§2) CO2 atmosphere incubator for 24 h. Then, medium with compound at the concentrations of 100, 20, 4, 0.8, 0.016 μM was added into each well for another 48 h and incubated with CCK-8 (10 μL) for 2 h at 37 °C. The absorbance value at 450 nm was measured by the microplate reader (PerkinElmer Envision). […]

[2] = molecular target: CYP 2C9 (Homo sapiens, UniProt P11712); assay: CYP inhibition activity, 2C9; format: in vitro ADME
Sequence of CYP 2C9 (P11712 whole entry): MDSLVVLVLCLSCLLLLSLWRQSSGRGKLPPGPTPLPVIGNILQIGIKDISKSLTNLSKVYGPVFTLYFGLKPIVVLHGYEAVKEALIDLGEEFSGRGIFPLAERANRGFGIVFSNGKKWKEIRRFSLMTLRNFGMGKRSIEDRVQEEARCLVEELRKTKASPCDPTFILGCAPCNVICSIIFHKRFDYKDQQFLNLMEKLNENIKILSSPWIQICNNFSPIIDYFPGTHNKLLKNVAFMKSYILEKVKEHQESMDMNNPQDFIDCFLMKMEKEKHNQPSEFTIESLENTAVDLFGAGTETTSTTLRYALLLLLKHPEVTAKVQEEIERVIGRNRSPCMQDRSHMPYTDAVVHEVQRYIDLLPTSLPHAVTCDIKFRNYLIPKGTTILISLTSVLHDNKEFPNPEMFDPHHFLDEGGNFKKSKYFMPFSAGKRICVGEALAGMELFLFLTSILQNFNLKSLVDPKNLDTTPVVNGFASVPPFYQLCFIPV
Excerpt: Table 7. CYP inhibition activity. | column: IC50 (μM) / 2C9

[3] = molecular target: CDK6 (Homo sapiens, UniProt Q00534); assay: CDKs selectivity, CDK6; format: biochemical
Sequence of CDK6 (Q00534 whole entry): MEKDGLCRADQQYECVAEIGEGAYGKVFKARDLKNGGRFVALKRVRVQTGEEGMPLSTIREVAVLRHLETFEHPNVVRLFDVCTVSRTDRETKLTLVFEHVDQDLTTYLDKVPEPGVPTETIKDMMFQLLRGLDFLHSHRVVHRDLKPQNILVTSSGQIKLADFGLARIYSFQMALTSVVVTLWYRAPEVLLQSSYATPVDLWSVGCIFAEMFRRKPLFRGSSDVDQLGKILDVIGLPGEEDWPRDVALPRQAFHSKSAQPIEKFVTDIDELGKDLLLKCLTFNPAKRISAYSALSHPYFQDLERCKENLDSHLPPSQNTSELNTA
Excerpt: CDK7 and CDK9 with the same transcription function and CDK2 and CDK6 were selected to evaluate the selectivity of compound 12.

[4] = Caco-2 permeability determination; format: in vitro ADME; conditions: human
[5] = system: Caco-2; assay: Caco-2 permeability determination; format: in vitro ADME; conditions: Caco-2
[6] = system: molm-13; assay: Antiproliferative CCK-8 assay, molm-13; format: cell-based; conditions: Homo sapiens; molm-13, CCK-8 assay, means ± SD; read-out: GC50 (the source's name)
Excerpt: as §1, §2

[7] = system: HCT-116; assay: Antiproliferative CCK-8 assay, HCT-116; format: cell-based; conditions: Homo sapiens; HCT-116, CCK-8 assay, means ± SD; read-out: GC50 (the source's name)
Excerpt: as §1, §2

[8] = molecular target: CYP 1A2 (Homo sapiens, UniProt P05177); assay: CYP inhibition activity, 1A2; format: in vitro ADME
Sequence of CYP 1A2 (P05177 whole entry): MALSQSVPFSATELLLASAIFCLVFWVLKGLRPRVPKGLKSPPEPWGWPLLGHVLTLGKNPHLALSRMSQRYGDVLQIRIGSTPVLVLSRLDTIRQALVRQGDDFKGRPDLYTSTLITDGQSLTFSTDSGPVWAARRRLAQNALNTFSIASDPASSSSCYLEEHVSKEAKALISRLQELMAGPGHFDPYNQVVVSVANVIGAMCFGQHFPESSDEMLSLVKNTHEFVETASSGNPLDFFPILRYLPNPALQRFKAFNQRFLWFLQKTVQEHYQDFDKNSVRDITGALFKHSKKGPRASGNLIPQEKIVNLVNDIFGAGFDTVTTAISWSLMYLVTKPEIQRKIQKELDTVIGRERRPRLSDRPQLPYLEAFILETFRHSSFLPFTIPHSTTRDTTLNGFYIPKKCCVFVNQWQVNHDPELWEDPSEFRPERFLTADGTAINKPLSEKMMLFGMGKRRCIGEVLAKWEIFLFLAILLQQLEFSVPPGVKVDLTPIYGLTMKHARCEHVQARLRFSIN
Excerpt: Table 7. CYP inhibition activity. | column: IC50 (μM) / 1A2

[9] = system: STAT1 S727; assay: Phosphorylation of STAT1 S727, western blot; format: cell-based; conditions: HCT-116 cells, 1, 2, 4 μM, 12 h
Description: It has been reported that CDK8 could specifically target the transactivation domain of STAT1 at Ser727 phosphorylation. HCT-116 cells were treated with compounds 12 with different concentrations of 1 μM, 2 μM, 4 μM separately to verify compound 12 could inhibit the phosphorylation of STAT1 Ser727. […] It’s reported that CDK8 was also involved in S726 phosphorylation of STAT5 in AML cells.
Figure 6. Compound 12 inhibited phosphorylation of STAT1 S727 and STAT5 S726. (A) Compound 12 suppressed the phosphorylation of STAT1 S727 in a dose-dependent manner. HCT-116 cells were treated with compound for 12 h. (B) Compound 12 suppressed the phosphorylation of STAT5 S726 in a dose dependent manner. HL-60 cells were treated with or without compound for 12 h. The samples were analysed by Western blot.
1.7 The effect of compound on phosphorylation of STAT1 S727
HCT-116 cells were seeded into 60 mm cultural dishes at a density of 1.5×10^6 cells per dishes. […] Levels of total STAT1, phosphorylated STAT1 S727, Y701 and GAPDH were analyzed. […]
Levels of total STAT5, phosphorylated STAT5 S726 and GAPDH were analyzed.
The results were expressed as the means ± SEMs (SPSS software), and the differences between groups were evaluated using Turkey’s method (GraphPad Software). […]

[10] = molecular target: CYP 2C19 (Homo sapiens, UniProt P33261); assay: CYP inhibition activity, 2C19; format: in vitro ADME
Sequence of CYP 2C19 (P33261 whole entry): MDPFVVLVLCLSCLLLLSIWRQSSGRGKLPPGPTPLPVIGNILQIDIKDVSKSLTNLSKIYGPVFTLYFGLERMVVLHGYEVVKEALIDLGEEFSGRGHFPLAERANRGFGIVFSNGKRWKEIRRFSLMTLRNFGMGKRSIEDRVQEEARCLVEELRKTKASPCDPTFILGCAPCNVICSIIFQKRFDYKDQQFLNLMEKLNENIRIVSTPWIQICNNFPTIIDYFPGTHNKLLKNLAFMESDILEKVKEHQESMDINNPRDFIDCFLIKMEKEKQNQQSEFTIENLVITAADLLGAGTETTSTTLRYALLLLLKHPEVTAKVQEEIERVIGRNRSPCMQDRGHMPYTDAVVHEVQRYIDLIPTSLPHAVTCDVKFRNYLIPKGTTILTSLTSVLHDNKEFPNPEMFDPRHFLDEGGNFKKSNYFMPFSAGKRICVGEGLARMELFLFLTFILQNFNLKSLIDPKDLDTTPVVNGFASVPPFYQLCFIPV
Excerpt: Table 7. CYP inhibition activity. | column: IC50 (μM) / 2C19

Structure (SMILES): NC(=O)c1cccc(-c2cnc3[nH]cc(-c4ccoc4)c3c2)c1 [Compound 12, 3-(3-(furan-3-yl)-1H-pyrrolo[2,3-b]pyridin-5-yl)benzamide]
- IC50 [1]: 30 ± 10 nM
- IC50 [2]: > 50000 nM
- IC50 [3]: 352 ± 36.5 nM
- efflux ratio ([4]; Caco-2): 1.3
- recovery ([4]; Caco-2, Caco-2, A→B, read-out: Recovery A→B): 107%
- recovery ([4]; Caco-2, Caco-2, B→A, read-out: Recovery B→A): 108%
- Papp A→B ([4]; Caco-2, A→B): 27 ×10⁻⁶ cm/s
- Papp B→A ([4]; Caco-2, B→A): 35.1 ×10⁻⁶ cm/s
- Permeability (in words) [5]: high permeability
- IC50 [6]: 20 ± 10 nM
- IC50 [7]: 3660 ± 1940 nM
- IC50 [8]: > 50000 nM
- Phosphorylation of STAT1 S727 [9]: significantly inhibited in a dose-dependent manner
- IC50 [10]: > 50000 nM
